This passage reports IC50 results from patent US12509444B2, “Compounds and methods for CD73 modulation and indications therefor” (Plexxikon Inc., priority 2019, dated 2025).

Test [1] deals with T1, Human CD73 (amino acid residues 27-549) (Homo sapiens, UniProt P21589).
T1 construct: Human CD73 (amino acid residues 27-549); His tag (N); made in house; host or cells: E. coli
T1 sequence (P21589 27-549): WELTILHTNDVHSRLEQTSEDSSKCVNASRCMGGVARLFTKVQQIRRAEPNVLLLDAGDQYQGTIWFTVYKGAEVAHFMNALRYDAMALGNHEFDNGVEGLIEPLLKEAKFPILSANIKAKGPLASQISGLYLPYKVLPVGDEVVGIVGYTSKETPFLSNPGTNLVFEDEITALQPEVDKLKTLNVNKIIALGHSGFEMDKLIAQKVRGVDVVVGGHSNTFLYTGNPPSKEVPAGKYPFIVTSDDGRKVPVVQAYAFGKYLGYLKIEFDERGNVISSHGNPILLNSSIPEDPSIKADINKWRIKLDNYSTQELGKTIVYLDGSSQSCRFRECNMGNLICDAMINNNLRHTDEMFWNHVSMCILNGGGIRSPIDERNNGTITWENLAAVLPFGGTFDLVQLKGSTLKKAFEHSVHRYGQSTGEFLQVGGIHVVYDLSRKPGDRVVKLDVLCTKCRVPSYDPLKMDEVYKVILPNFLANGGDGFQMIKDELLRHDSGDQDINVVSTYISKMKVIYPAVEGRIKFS
Briefly: CD73 enzymatic assay (luciferase-based indirect assay, CellTiter-Glo). It counts as biochemical. The settings on record: 0.4 nM CD73, 150 μM AMP, 1 hour at room temperature. A digest of the protocol: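 Residual AMP inhibits luciferase, so luminescence reports CD73 turnover; read with CellTiter-Glo 2.0 plus 1 μM final ATP, 30 min. Reaction used 0.4 nM N-His CD73 (27-549, E. coli), 150 μM AMP, HEPES pH 7.4 with Tween 20, 1 h at room temperature. IC50 fitted by nonlinear regression.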
In general terms: Cellular ATP, detected with luciferase, serves as a proxy for viable cell number.

The next test concerns the target T2, human CD73 (Homo sapiens, UniProt P21589).
T2 construct: expressed in transfected cells
T2 sequence (P21589 27-549): T1 sequence (P21589 27-549)
Briefly: Inhibitor activity against CD73 in cell based assay (CD73 expressing CHO-K1 cells). The note with it: CHO-K1 cells expressing human CD73, 150 μM AMP, 4 hours of incubation; read-out: CHO-K1 CELL VARIANT: CD73 IC50. The method, boiled down:
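Residual supernatant AMP was quantified via CellTiter-Glo luminescence (1 μM ATP added, 30 min, room temperature) after a 4 h exposure of human CD73-expressing CHO-K1 cells to 150 μM AMP plus compound, top final 10 μM, 8 points. IC50 came from nonlinear regression of percent inhibition.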

For orientation: IC50 means the concentration that gives 50% inhibition.

With `CC1(NC(=O)c2ccccc2)CCC(NC(=O)O[C@@H]2CCN(c3cn[nH]c(=O)c3Cl)C2)CC1` (stereo partly drawn) [P-0357, (R)-1-(5-chloro-6-oxo-1,6-dihydropyridazin-4-yl)pyrrolidin-3-yl (4-benzamido-4-methylcyclohexyl)carbamate], the IC50 (in test [1]; at human CD73) was 0.001 to 10 µM in each case.

With `CC1(NS(C)(=O)=O)CCC(NC(=O)O[C@@H]2CCN(c3cn[nH]c(=O)c3Cl)C2)CC1` (stereo partly drawn) [P-0358, (R)-1-(5-chloro-6-oxo-1,6-dihydropyridazin-4-yl)pyrrolidin-3-yl (4-methyl-4-(methylsulfonamido)cyclohexyl)carbamate], the half-inhibitory concentration (IC50) (in test [1]; at human CD73) was 0.001 to 10 µM throughout.

`O=C(N[C@@H]1CCN(C(=O)c2ccccc2)C1)O[C@@H]1CCN(c2cn[nH]c(=O)c2Cl)C1` [P-0359, (R)-1-(5-chloro-6-oxo-1,6-dihydropyridazin-4-yl)pyrrolidin-3-yl ((R)-1-benzoylpyrrolidin-3-yl)carbamate]: the IC50 (in test [1]; on human CD73) was 0.001 to 10 µM throughout.

For `O=C(NC1(C(F)(F)F)CCCC1)O[C@@H]1CCN(c2cn[nH]c(=O)c2Cl)C1` [P-0360, (R)-1-(5-chloro-6-oxo-1,6-dihydropyridazin-4-yl)pyrrolidin-3-yl (1-(trifluoromethyl)cyclopentyl) carbamate], the IC50 (in test [1]; on human CD73) was 0.001 to 10 µM in each case.

`N#CC1(NC(=O)O[C@@H]2CCN(c3cn[nH]c(=O)c3Cl)C2)CCCC1` [P-0361, (R)-1-(5-chloro-6-oxo-1,6-dihydropyridazin-4-yl)pyrrolidin-3-yl (1-cyanocyclopentyl)carbamate]: the IC50 (in test [1]; at human CD73) was 0.001 to 10 µM throughout.

`O=C(NC1(c2ccc(F)cc2)CC1)O[C@@H]1CCN(c2cn[nH]c(=O)c2Cl)C1` [P-0362, (R)-1-(5-chloro-6-oxo-1,6-dihydropyridazin-4-yl)pyrrolidin-3-yl (1-(4-fluorophenyl)cyclopropyl) carbamate]: the IC50 (in test [1]; at human CD73) was 0.001 to 10 µM throughout.

Consider `C=Cc1c(N2CC[C@@H](OC(=O)NC3CCCC3)C2)cn[nH]c1=O` [P-0363, (R)-1-(6-oxo-5-vinyl-1,6-dihydropyridazin-4-yl)pyrrolidin-3-yl cyclopentylcarbamate], for which the 50% inhibitory concentration (IC50) (in test [1]; at human CD73) was 0.001 to 10 µM throughout.

Turning to `O=C(N[C@H]1CC[C@H](NC(=O)c2ccccc2)C1)O[C@@H]1CCN(c2cn[nH]c(=O)c2Cl)C1` [P-0364, (R)-1-(5-chloro-6-oxo-1,6-dihydropyridazin-4-yl)pyrrolidin-3-yl ((1S,3S)-3-benzamidocyclopentyl) carbamate], the IC50 (in test [1]; at human CD73) was 0.001 to 10 µM in each case.

On to `O=C(N[C@H]1CC[C@H](NS(=O)(=O)c2ccccc2F)C1)O[C@@H]1CCN(c2cn[nH]c(=O)c2Cl)C1` [P-0365, (R)-1-(5-chloro-6-oxo-1,6-dihydropyridazin-4-yl)pyrrolidin-3-yl ((1S,3S)-3-((2-fluorophenyl)sulfonamido)cyclopentyl)carbamate], for which the IC50 (in test [1]; at human CD73) was 0.001 to 10 µM each time.

Turning to `COc1ccc(S(=O)(=O)C[C@H]2CC[C@H](NC(=O)O[C@@H]3CCN(c4cn[nH]c(=O)c4Cl)C3)CC2)cc1` [P-0366, (R)-1-(5-chloro-6-oxo-1,6-dihydropyridazin-4-yl)pyrrolidin-3-yl ((1r,4R)-4-(((4-methoxyphenyl)sulfonyl)methyl)cyclohexyl)carbamate], the IC50 (in test [1]; at human CD73) was 0.001 to 10 µM each time.

Regarding `O=C(N[C@@H]1CC[C@H]1C(F)(F)F)O[C@@H]1CCN(c2cn[nH]c(=O)c2Cl)C1` [P-0367, (R)-1-(5-chloro-6-oxo-1,6-dihydropyridazin-4-yl)pyrrolidin-3-yl ((1R,2R)-2-(trifluoromethyl)cyclobutyl) carbamate], the IC50 (in test [1]; at human CD73) was 0.001 to 10 µM in each case.

Consider `O=C(N[C@H]1C[C@@](O)(C(F)(F)F)C1)O[C@@H]1CCN(c2cn[nH]c(=O)c2Cl)C1` [P-0368, (R)-1-(5-chloro-6-oxo-1,6-dihydropyridazin-4-yl)pyrrolidin-3-yl ((1r,3r)-3-hydroxy-3-(trifluoromethyl)cyclobutyl)carbamate], for which the concentration for half-maximal inhibition (IC50) (in test [1]; on human CD73) was 0.001 to 10 µM each time.

On to `O=C(NC1CCN(C(=O)c2ccccc2)CC1)O[C@@H]1CCN(c2cn[nH]c(=O)c2Cl)C1` [P-0369, (R)-1-(5-chloro-6-oxo-1,6-dihydropyridazin-4-yl)pyrrolidin-3-yl (1-benzoylpiperidin-4-yl)carbamate], for which the IC50 (in test [1]; on human CD73) was 0.001 to 10 µM throughout.

As to `O=C(NC1CCN(C(=O)C2CCC2)CC1)O[C@@H]1CCN(c2cn[nH]c(=O)c2Cl)C1` [P-0370, (R)-1-(5-chloro-6-oxo-1,6-dihydropyridazin-4-yl)pyrrolidin-3-yl (1-(cyclobutanecarbonyl)piperidin-4-yl)carbamate], the IC50 (in test [1]; on human CD73) was 0.001 to 10 µM each time.

For the compound `O=C(NC1CCN(C(=O)c2ccno2)CC1)O[C@@H]1CCN(c2cn[nH]c(=O)c2Cl)C1` [P-0371, (R)-1-(5-chloro-6-oxo-1,6-dihydropyridazin-4-yl)pyrrolidin-3-yl (1-(isoxazole-5-carbonyl)piperidin-4-yl)carbamate], the IC50 (in test [1]; on human CD73) was 0.001 to 10 µM each time.

In the case of `CC(C)C(=O)N1CCC(NC(=O)O[C@@H]2CCN(c3cn[nH]c(=O)c3Cl)C2)CC1` [P-0372, (R)-1-(5-chloro-6-oxo-1,6-dihydropyridazin-4-yl)pyrrolidin-3-yl (1-isobutyrylpiperidin-4-yl)carbamate], the IC50 (in test [1]; at human CD73) was 0.001 to 10 µM throughout.

Take `CC(C)(C)C(=O)N1CCC(NC(=O)O[C@@H]2CCN(c3cn[nH]c(=O)c3Cl)C2)CC1` [P-0373, (R)-1-(5-chloro-6-oxo-1,6-dihydropyridazin-4-yl)pyrrolidin-3-yl (1-pivaloylpiperidin-4-yl)carbamate]: the half-maximal inhibitory concentration (IC50) (in test [1]; at human CD73) was 0.001 to 10 µM throughout.

On to `O=C(NC1CCN(C(=O)Cc2ccccc2)CC1)O[C@@H]1CCN(c2cn[nH]c(=O)c2Cl)C1` [P-0374, (R)-1-(5-chloro-6-oxo-1,6-dihydropyridazin-4-yl)pyrrolidin-3-yl (1-(2-phenylacetyl)piperidin-4-yl)carbamate], for which the IC50 (in test [1]; on human CD73) was 0.001 to 10 µM each time.

As to `CC(C)CC(=O)N1CCC(NC(=O)O[C@@H]2CCN(c3cn[nH]c(=O)c3Cl)C2)CC1` [P-0375, (R)-1-(5-chloro-6-oxo-1,6-dihydropyridazin-4-yl)pyrrolidin-3-yl (1-(3-methylbutanoyl)piperidin-4-yl)carbamate], the concentration for half-maximal inhibition (IC50) (in test [1]; at human CD73) was 0.001 to 10 µM throughout.

`CCC(=O)N1CCC(NC(=O)O[C@@H]2CCN(c3cn[nH]c(=O)c3Cl)C2)CC1` [P-0376, (R)-1-(5-chloro-6-oxo-1,6-dihydropyridazin-4-yl)pyrrolidin-3-yl (1-propionylpiperidin-4-yl)carbamate]: the concentration for half-maximal inhibition (IC50) (in test [1]; on human CD73) was 0.001 to 10 µM throughout.

For the compound `O=C(NC1CCN(C(=O)C2CCCC2)CC1)O[C@@H]1CCN(c2cn[nH]c(=O)c2Cl)C1` [P-0377, (R)-1-(5-chloro-6-oxo-1,6-dihydropyridazin-4-yl)pyrrolidin-3-yl (1-(cyclopentanecarbonyl)piperidin-4-yl)carbamate], the IC50 (in test [1]; on human CD73) was 0.001 to 10 µM throughout.
